In patent US20250089713A1, “METHOD OF CONTROLLING OR REDUCING SENESCENCE IN PLANTS AND SEEDS” (Bedoukian Reseach, Inc., priority 2023, published 2025):
Where “and” joins values, the source holds several entries; their conditions need not be identical. Equal entries are not always repeated.

Tests used:
[1] = system: seeds of the corn varietal Kandy Korn; test: Reduction of retarded seed germination rate senescence, seed soak (germination rate and radicle length); assay type: in vivo
Experimental: Non-germinated seeds of the corn varietal Kandy Korn are soaked in one of two treatment solutions: T1: untreated, only water and T2: treated, 1.5 mM (0.034% wt) of methyl dihydrojasmonate (MDJ) in water for 24 hours in 50 mL conical vessels. During the soak event, the seeds spend 12 hours in typical lighting conditions and 12 hours in darkness. Following seed treatment, the treatment solutions are drained from their vessels and a selection of seeds are taken from each vessel for planting. Six two-inch pots are planted for each treatment group, with three seeds per pot, for a total of 18 seeds planted per treatment. The unplanted seeds are allowed to remain in their original vessels in lighted conditions. In addition to determining the germination rate, the radicle lengths of the germinated seeds are measured.

[2] = system: corn (Kandy Korn, extra sweet) plants; test: Reduction of plant wilting senescence, foliar spray on corn seedlings; assay type: in vivo; settings: foliar spray of 1 mM (0.023% wt) in water at day 18, observed at day 25, n = 12, untreated 65%
Experimental: Seeds of corn (Kandy Korn, extra sweet) are planted in 2-inch pots. Seedlings are grown in 2-inch pots under 16-hour day/8-hour night greenhouse conditions. Plants are placed outdoors and receive 5-6 hours of natural, direct light 4-6 days per week. At day 18, seedlings receive one of two treatments: T1: untreated plants (n=11) and T2: treated, plants with foliar spray of 1 mM (0.023% wt) of methyl dihydrojasmonate (MDJ) in water. Plants are sprayed until the point of drip. (n=12). At day 25, plants are observed and senescence is recorded (percentage of wilting plants).

SMILES: CCCCCC1C(=O)CCC1CC(=O)OC (stereo not shown) [MDJ, methyl dihydrojasmonate]
- Germination Rate (percent of seeds that germinated) ([1]; corn seeds soaked 24 hours in 1.5 mM (0.034% wt) in water, n = 10, untreated (only water) 50%): 100%
- Radicle length measurements of unplanted germinated seeds (individual seeds) ([1]; corn seeds soaked 24 hours in 1.5 mM in water, one value per seed, untreated 1-3 mm, listed as Methyl Dihydrojasmonate (MDJ)): 5 mm (3×) and 6 mm (2×) and 4 mm (4×) and 3 mm
- average radicle length compared with untreated (only water) ([1]; corn seeds soaked in 1.5 mM, FIG. 2): significantly longer
- % of plants with senescing plant wilting [2]: 25%
